Measured values as given in the NIST ThermoML archive (doi:10.1021/je030207i).

Columns and labels:
[1] = Liquid; for Normal boiling temperature: Ebulliometric method (Recirculating still); for mass density: 298.15 K, 101.3 kPa
[2] = excess molar enthalpy (molar enthalpy of mixing); xn = mol fraction of the nth substance listed; details: 101.3 kPa, Liquid, Flow calorimetry

OCCO [1,2-ethanediol]
Details	Normal boiling temperature [°C]
[1]	197.23

OCCO [1,2-ethanediol] + CC(C)O
[2]
Details	excess molar enthalpy [kcal/mol]
298.15 K, x1 = 0.0678	0.0521
298.15 K, x1 = 0.1326	0.0876
298.15 K, x1 = 0.1951	0.112
298.15 K, x1 = 0.2555	0.128
298.15 K, x1 = 0.3138	0.138
298.15 K, x1 = 0.3702	0.143
298.15 K, x1 = 0.4248	0.145
298.15 K, x1 = 0.4776	0.144
298.15 K, x1 = 0.5287	0.14
298.15 K, x1 = 0.5782	0.134
298.15 K, x1 = 0.6262	0.127
298.15 K, x1 = 0.6727	0.118
298.15 K, x1 = 0.7178	0.107
298.15 K, x1 = 0.7617	0.0951
298.15 K, x1 = 0.8042	0.0815
298.15 K, x1 = 0.8455	0.0677
298.15 K, x1 = 0.8857	0.0523
298.15 K, x1 = 0.9248	0.036
298.15 K, x1 = 0.9628	0.0185
308.15 K, x1 = 0.0675	0.0506
308.15 K, x1 = 0.1325	0.0874
308.15 K, x1 = 0.1953	0.112
308.15 K, x1 = 0.2558	0.128
308.15 K, x1 = 0.3143	0.138
308.15 K, x1 = 0.3708	0.144
308.15 K, x1 = 0.4254	0.145
308.15 K, x1 = 0.4783	0.144
308.15 K, x1 = 0.5294	0.141
308.15 K, x1 = 0.589	0.135
308.15 K, x1 = 0.627	0.127
308.15 K, x1 = 0.6735	0.118
308.15 K, x1 = 0.7186	0.107
308.15 K, x1 = 0.7624	0.0959
308.15 K, x1 = 0.8049	0.0828
308.15 K, x1 = 0.8462	0.0682
308.15 K, x1 = 0.8863	0.0527
308.15 K, x1 = 0.9252	0.0366
308.15 K, x1 = 0.9631	0.0188
323.15 K, x1 = 0.0678	0.0469
323.15 K, x1 = 0.1326	0.0815
323.15 K, x1 = 0.1951	0.105
323.15 K, x1 = 0.2555	0.121
323.15 K, x1 = 0.3138	0.131
323.15 K, x1 = 0.3702	0.138
323.15 K, x1 = 0.4247	0.14
323.15 K, x1 = 0.4775	0.14
323.15 K, x1 = 0.5286	0.136
323.15 K, x1 = 0.5781	0.131
323.15 K, x1 = 0.6261	0.124
323.15 K, x1 = 0.6727	0.116
323.15 K, x1 = 0.7178	0.105
323.15 K, x1 = 0.7617	0.0939
323.15 K, x1 = 0.8042	0.0816
323.15 K, x1 = 0.8456	0.0673
323.15 K, x1 = 0.8858	0.0522
323.15 K, x1 = 0.9248	0.036
323.15 K, x1 = 0.9628	0.0189

OCCO [1,2-ethanediol] + CCCCO
excess molar enthalpy [kcal/mol], [2]
Details	298.15 K	308.15 K	323.15 K
x1 = 0.0798	–	–	0.0775
x1 = 0.0803	0.0708	0.0745	–
x1 = 0.1548	0.115	0.122	–
x1 = 0.1552	–	–	0.124
x1 = 0.225	0.144	0.152	–
x1 = 0.2253	–	–	0.159
x1 = 0.2912	0.161	0.171	–
x1 = 0.2914	–	–	0.179
x1 = 0.3537	0.172	0.181	–
x1 = 0.354	–	–	0.191
x1 = 0.4129	0.176	0.186	–
x1 = 0.4131	–	–	0.197
x1 = 0.4691	0.177	0.187	–
x1 = 0.4692	–	–	0.199
x1 = 0.5223	–	0.185	–
x1 = 0.5224	0.175	–	0.196
x1 = 0.573	0.17	0.18	0.19
x1 = 0.6211	–	0.172	0.184
x1 = 0.6212	0.163	–	–
x1 = 0.6671	0.154	0.163	0.172
x1 = 0.7108	–	–	0.16
x1 = 0.7109	0.143	0.152	–
x1 = 0.7527	0.132	0.139	0.147
x1 = 0.7926	0.117	0.124	0.132
x1 = 0.8308	0.103	0.108	–
x1 = 0.8309	–	–	0.116
x1 = 0.8675	0.0857	0.0913	0.0944
x1 = 0.9026	0.0679	0.0715	0.0749
x1 = 0.9362	0.0466	0.0485	–
x1 = 0.9363	–	–	0.0521
x1 = 0.9686	0.0243	0.026	–
x1 = 0.9687	–	–	0.0267

OCCO [1,2-ethanediol] + CCCO
excess molar enthalpy [kcal/mol], [2]
Details	298.15 K	308.15 K	323.15 K
x1 = 0.0644	–	–	0.0566
x1 = 0.0664	0.0498	0.0535	–
x1 = 0.13	0.0849	0.0912	0.0966
x1 = 0.1915	0.109	0.117	0.125
x1 = 0.2511	0.126	0.135	0.144
x1 = 0.3089	0.137	0.147	0.156
x1 = 0.3648	0.144	0.152	0.163
x1 = 0.4191	0.147	0.155	–
x1 = 0.4192	–	–	0.167
x1 = 0.4718	0.147	0.156	0.167
x1 = 0.5229	0.144	0.153	0.163
x1 = 0.5725	0.138	0.148	0.158
x1 = 0.6207	0.132	0.141	0.15
x1 = 0.6676	0.124	0.132	0.141
x1 = 0.7131	0.114	0.121	0.129
x1 = 0.7574	0.102	0.109	0.116
x1 = 0.8005	0.0897	0.0942	0.101
x1 = 0.8425	0.0741	0.0784	0.0838
x1 = 0.8833	–	–	0.0651
x1 = 0.8834	0.0581	0.0611	–
x1 = 0.9231	–	–	0.0448
x1 = 0.9232	0.04	0.0426	–
x1 = 0.9619	0.0209	0.0218	0.0229

OCCO [1,2-ethanediol] + CCO
excess molar enthalpy [kcal/mol], [2]
Details	298.15 K	308.15 K	323.15 K
x1 = 0.0526	0.0266	0.0283	0.0307
x1 = 0.1045	0.0475	0.0506	0.0547
x1 = 0.1561	0.0636	0.0678	0.0734
x1 = 0.2075	0.0758	0.0807	0.0875
x1 = 0.2587	0.084	0.0904	0.0976
x1 = 0.3096	0.0907	0.0971	0.105
x1 = 0.3604	0.0945	0.101	0.109
x1 = 0.4109	0.0962	0.103	0.111
x1 = 0.4611	0.0962	0.103	0.111
x1 = 0.5112	0.0945	0.101	0.108
x1 = 0.561	0.091	0.0971	0.105
x1 = 0.6106	0.0858	0.0915	0.0986
x1 = 0.66	0.0793	0.085	0.0911
x1 = 0.7092	0.0716	0.0765	0.0822
x1 = 0.7581	0.063	0.067	0.0724
x1 = 0.8069	0.0528	0.0562	0.0601
x1 = 0.8554	0.0412	0.0432	0.0472
x1 = 0.9037	0.0277	0.0305	0.0329
x1 = 0.9518	0.0147	0.0156	0.0169

OCCO [1,2-ethanediol] + CO
[2]
Details	excess molar enthalpy [kcal/mol]
298.15 K, x1 = 0.037	0.00564
298.15 K, x1 = 0.0748	0.0106
298.15 K, x1 = 0.1137	0.0147
298.15 K, x1 = 0.1538	0.0184
298.15 K, x1 = 0.195	0.0216
298.15 K, x1 = 0.2374	0.024
298.15 K, x1 = 0.2811	0.0263
298.15 K, x1 = 0.3262	0.0274
298.15 K, x1 = 0.3726	0.0287
298.15 K, x1 = 0.4206	0.0289
298.15 K, x1 = 0.4701	0.0289
298.15 K, x1 = 0.5212	0.0282
298.15 K, x1 = 0.574	0.027
298.15 K, x1 = 0.6286	0.0251
298.15 K, x1 = 0.6851	0.0226
298.15 K, x1 = 0.7436	0.0197
298.15 K, x1 = 0.8042	0.0157
298.15 K, x1 = 0.867	0.0114
298.15 K, x1 = 0.9321	0.00591
308.15 K, x1 = 0.0372	0.00594
308.15 K, x1 = 0.0752	0.0113
308.15 K, x1 = 0.1143	0.0158
308.15 K, x1 = 0.1545	0.0196
308.15 K, x1 = 0.1958	0.0234
308.15 K, x1 = 0.2384	0.0258
308.15 K, x1 = 0.2822	0.0282
308.15 K, x1 = 0.3274	0.0298
308.15 K, x1 = 0.3739	0.0307
308.15 K, x1 = 0.4219	0.0314
308.15 K, x1 = 0.4715	0.0311
308.15 K, x1 = 0.5226	0.0302
308.15 K, x1 = 0.5754	0.0285
308.15 K, x1 = 0.6299	0.0269
308.15 K, x1 = 0.6863	0.0243
308.15 K, x1 = 0.7447	0.021
308.15 K, x1 = 0.8051	0.0169
308.15 K, x1 = 0.8676	0.0121
308.15 K, x1 = 0.9325	0.00632
323.15 K, x1 = 0.0371	0.00686
323.15 K, x1 = 0.075	0.0127
323.15 K, x1 = 0.114	0.0179
323.15 K, x1 = 0.154	0.0219
323.15 K, x1 = 0.1953	0.0258
323.15 K, x1 = 0.2378	0.0291
323.15 K, x1 = 0.2815	0.0316
323.15 K, x1 = 0.3266	0.0332
323.15 K, x1 = 0.3732	0.0343
323.15 K, x1 = 0.4211	0.035
323.15 K, x1 = 0.4706	0.0344
323.15 K, x1 = 0.5218	0.034
323.15 K, x1 = 0.5746	0.0322
323.15 K, x1 = 0.6292	0.0298
323.15 K, x1 = 0.6856	0.0271
323.15 K, x1 = 0.744	0.0231
323.15 K, x1 = 0.8046	0.0185
323.15 K, x1 = 0.8673	0.013
323.15 K, x1 = 0.9323	0.00668

CCCCO [butan-1-ol]
[1]
Details	Normal boiling temperature [°C]	mass density [kg/m3]
–	117.71	805.9

CCC(C)O (stereo not drawn) [butan-2-ol] + OCCO
excess molar enthalpy [kcal/mol], [2]
Details	298.15 K	308.15 K	323.15 K
x2 = 0.081	0.0655	0.0583	0.0422
x2 = 0.1557	0.109	0.101	0.0777
x2 = 0.226	0.136	0.128	0.103
x2 = 0.2923	0.154	0.145	0.12
x2 = 0.3549	0.164	0.155	0.131
x2 = 0.4142	0.167	0.161	0.137
x2 = 0.4703	0.167	0.161	0.139
x2 = 0.5235	0.165	0.159	0.139
x2 = 0.5741	0.16	0.154	0.136
x2 = 0.6222	0.152	0.148	0.132
x2 = 0.6681	0.144	0.14	0.126
x2 = 0.7117	0.133	0.13	0.117
x2 = 0.7535	0.122	0.119	0.108
x2 = 0.7933	0.107	0.106	0.0979
x2 = 0.8314	0.093	0.0915	0.0851
x2 = 0.868	0.0777	0.0769	0.071
x2 = 0.9029	0.0603	0.0602	0.055
x2 = 0.9365	0.0421	0.0412	0.0373
x2 = 0.9687	0.0223	0.0221	0.0192

CCO [ethanol]
[1]
Details	Normal boiling temperature [°C]	mass density [kg/m3]
–	78.26	785.2

CO [methanol]
[1]
Details	Normal boiling temperature [°C]	mass density [kg/m3]
–	64.47	786.4

CCCO [propan-1-ol]
[1]
Details	Normal boiling temperature [°C]	mass density [kg/m3]
–	97.16	799.8

CC(C)O [propan-2-ol]
[1]
Details	Normal boiling temperature [°C]	mass density [kg/m3]
–	82.20	781.1
